Experimental data from PubChem BioAssay AID2060488 (Molecular Pharmacology Branch, DTP, NCI, 2025).

Tested on: 966289-007-R4-J1-PDC complex spheroid viability
Assay: Anticancer human tumor 966289-007-R4-J1-PDC patient-derived pancreatic adenocarcinoma cell line growth inhibition [GQUAD]
Conditions: for IC50: curve of first compound; for viability, T/C: stronger effect = lower value
Method in brief: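 Tumor cells were grown as complex spheroids with HUVEC endothelial cells and mesenchymal stem cells as stroma. G-quadruplex stabilizers were combined with targeted agents over half-log dilutions from near the clinical Cmax, or from 10 microM.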

[1] = second compound 0.0316 µM, first compound 0.0316 µM
[2] = second compound 0.0316 µM, first compound 0.1 µM
[3] = second compound 0.0316 µM, first compound 0.316 µM
[4] = second compound 0.0316 µM, first compound 1 µM
[5] = second compound 0.0316 µM, first compound 3.16 µM
[6] = second compound 0.0316 µM, first compound 10 µM
[7] = second compound 0.1 µM, first compound 0.0316 µM
[8] = second compound 0.1 µM, first compound 0.1 µM
[9] = second compound 0.1 µM, first compound 0.316 µM
[10] = second compound 0.1 µM, first compound 1 µM
[11] = second compound 0.1 µM, first compound 3.16 µM
[12] = second compound 0.1 µM, first compound 10 µM
[13] = second compound 0.316 µM, first compound 0.0316 µM
[14] = second compound 0.316 µM, first compound 0.1 µM
[15] = second compound 0.316 µM, first compound 0.316 µM
[16] = second compound 0.316 µM, first compound 1 µM
[17] = second compound 0.316 µM, first compound 3.16 µM
[18] = second compound 0.316 µM, first compound 10 µM
[19] = second compound 1 µM, first compound 0.0316 µM
[20] = second compound 1 µM, first compound 0.1 µM
[21] = second compound 1 µM, first compound 0.316 µM
[22] = second compound 1 µM, first compound 1 µM
[23] = second compound 1 µM, first compound 3.16 µM
[24] = second compound 1 µM, first compound 10 µM
[25] = second compound 3.16 µM, first compound 0.0316 µM
[26] = second compound 3.16 µM, first compound 0.1 µM
[27] = second compound 3.16 µM, first compound 0.316 µM
[28] = second compound 3.16 µM, first compound 1 µM
[29] = second compound 3.16 µM, first compound 3.16 µM
[30] = second compound 3.16 µM, first compound 10 µM
[31] = second compound 10 µM, first compound 0.0316 µM
[32] = second compound 10 µM, first compound 0.1 µM
[33] = second compound 10 µM, first compound 0.316 µM
[34] = second compound 10 µM, first compound 1 µM
[35] = second compound 10 µM, first compound 3.16 µM
[36] = second compound 10 µM, first compound 10 µM
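Also: spheroids exposed to the agents for seven days before readout.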
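For viability, T/C in this document: percent viability relative to DMSO vehicle control wells taken as 100%.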

Compound: C=CC(=O)N1CCN(c2nc(=O)n(-c3c(C)ccnc3C(C)C)c3nc(-c4c(O)cccc4F)c(F)cc23)C(C)C1 (stereo not drawn) + CN(C)c1ccc(Nc2c3ccc(NC(=O)CCN4CCCC4)cc3nc3cc(NC(=O)CCN4CCCC4)ccc23)cc1
- IC50 (second compound 0.0316 µM): > 10 µM
- IC50 (second compound 0.1 µM): > 10 µM
- IC50 (second compound 0.316 µM): > 10 µM
- IC50 (second compound 1 µM): > 10 µM
- IC50 (second compound 3.16 µM): > 10 µM
- IC50 (second compound 10 µM): 6.78 µM
- viability, T/C [1]: 107%
- viability, T/C [2]: 99.6%
- viability, T/C [3]: 106%
- viability, T/C [4]: 100%
- viability, T/C [5]: 106%
- viability, T/C [6]: 110%
- viability, T/C [7]: 101%
- viability, T/C [8]: 105%
- viability, T/C [9]: 105%
- viability, T/C [10]: 104%
- viability, T/C [11]: 102%
- viability, T/C [12]: 113%
- viability, T/C [13]: 96%
- viability, T/C [14]: 104%
- viability, T/C [15]: 106%
- viability, T/C [16]: 102%
- viability, T/C [17]: 97.1%
- viability, T/C [18]: 111%
- viability, T/C [19]: 94.3%
- viability, T/C [20]: 99.8%
- viability, T/C [21]: 102%
- viability, T/C [22]: 94.8%
- viability, T/C [23]: 108%
- viability, T/C [24]: 108%
- viability, T/C [25]: 99.6%
- viability, T/C [26]: 101%
- viability, T/C [27]: 107%
- viability, T/C [28]: 105%
- viability, T/C [29]: 106%
- viability, T/C [30]: 111%
- viability, T/C [31]: 105%
- viability, T/C [32]: 101%
- viability, T/C [33]: 108%
- viability, T/C [34]: 105%
- viability, T/C [35]: 106%
- viability, T/C [36]: 21.7%

Compound: CCc1c2c(nc3ccc(O)cc13)-c1cc3c(c(=O)n1C2)COC(=O)[C@]3(O)CC + CN(C)c1ccc(Nc2c3ccc(NC(=O)CCN4CCCC4)cc3nc3cc(NC(=O)CCN4CCCC4)ccc23)cc1
- IC50 (second compound 0.0316 µM): < 0.000999 µM
- IC50 (second compound 0.1 µM): < 0.000999 µM
- IC50 (second compound 0.316 µM): < 0.000999 µM
- IC50 (second compound 1 µM): < 0.000999 µM
- IC50 (second compound 3.16 µM): < 0.000999 µM
- IC50 (second compound 10 µM): < 0.000999 µM
- viability, T/C (second compound 0.0316 µM, first compound 0.000999 µM): 21.2%
- viability, T/C (second compound 0.0316 µM, first compound 0.00316 µM): 1.29%
- viability, T/C (second compound 0.0316 µM, first compound 0.00999 µM): 0.59%
- viability, T/C [1]: 0.58%
- viability, T/C (second compound 0.0316 µM, first compound 0.0999 µM): 0.44%
- viability, T/C [3]: 0.43%
- viability, T/C (second compound 0.1 µM, first compound 0.000999 µM): 22.3%
- viability, T/C (second compound 0.1 µM, first compound 0.00316 µM): 1.11%
- viability, T/C (second compound 0.1 µM, first compound 0.00999 µM): 0.72%
- viability, T/C [7]: 1.03%
- viability, T/C (second compound 0.1 µM, first compound 0.0999 µM): 0.43%
- viability, T/C [9]: 0.56%
- viability, T/C (second compound 0.316 µM, first compound 0.000999 µM): 18.6%
- viability, T/C (second compound 0.316 µM, first compound 0.00316 µM): 1.04%
- viability, T/C (second compound 0.316 µM, first compound 0.00999 µM): 1.15%
- viability, T/C [13]: 0.5%
- viability, T/C (second compound 0.316 µM, first compound 0.0999 µM): 0.36%
- viability, T/C [15]: 0.44%
- viability, T/C (second compound 1 µM, first compound 0.000999 µM): 22.2%
- viability, T/C (second compound 1 µM, first compound 0.00316 µM): 1.12%
- viability, T/C (second compound 1 µM, first compound 0.00999 µM): 0.68%
- viability, T/C [19]: 0.53%
- viability, T/C (second compound 1 µM, first compound 0.0999 µM): 1.55%
- viability, T/C [21]: 0.4%
- viability, T/C (second compound 3.16 µM, first compound 0.000999 µM): 17.7%
- viability, T/C (second compound 3.16 µM, first compound 0.00316 µM): 1.42%
- viability, T/C (second compound 3.16 µM, first compound 0.00999 µM): 0.73%
- viability, T/C [25]: 0.58%
- viability, T/C (second compound 3.16 µM, first compound 0.0999 µM): 0.38%
- viability, T/C [27]: 0.97%
- viability, T/C (second compound 10 µM, first compound 0.000999 µM): 9.4%
- viability, T/C (second compound 10 µM, first compound 0.00316 µM): 0.87%
- viability, T/C (second compound 10 µM, first compound 0.00999 µM): 0.74%
- viability, T/C [31]: 0.39%
- viability, T/C (second compound 10 µM, first compound 0.0999 µM): 0.62%
- viability, T/C [33]: 0.22%

Compound: Cc1cccc(N(C)C(=O)C2C(O)CCN2c2nc(C)cc(C(F)(F)F)c2C#N)c1 (stereo not drawn) + CN(C)c1ccc(Nc2c3ccc(NC(=O)CCN4CCCC4)cc3nc3cc(NC(=O)CCN4CCCC4)ccc23)cc1
- IC50 (second compound 0.0316 µM): > 10 µM
- IC50 (second compound 0.1 µM): > 10 µM
- IC50 (second compound 0.316 µM): > 10 µM
- IC50 (second compound 1 µM): > 10 µM
- IC50 (second compound 3.16 µM): > 10 µM
- IC50 (second compound 10 µM): 1.72 µM
- viability, T/C [1]: 107%
- viability, T/C [2]: 94.7%
- viability, T/C [3]: 106%
- viability, T/C [4]: 95.8%
- viability, T/C [5]: 101%
- viability, T/C [6]: 99.3%
- viability, T/C [7]: 107%
- viability, T/C [8]: 98.5%
- viability, T/C [9]: 103%
- viability, T/C [10]: 99.7%
- viability, T/C [11]: 102%
- viability, T/C [12]: 107%
- viability, T/C [13]: 95.8%
- viability, T/C [14]: 100%
- viability, T/C [15]: 105%
- viability, T/C [16]: 101%
- viability, T/C [17]: 102%
- viability, T/C [18]: 100%
- viability, T/C [19]: 102%
- viability, T/C [20]: 105%
- viability, T/C [21]: 107%
- viability, T/C [22]: 101%
- viability, T/C [23]: 99.6%
- viability, T/C [24]: 109%
- viability, T/C [25]: 104%
- viability, T/C [26]: 106%
- viability, T/C [27]: 101%
- viability, T/C [28]: 97.3%
- viability, T/C [29]: 102%
- viability, T/C [30]: 104%
- viability, T/C [31]: 105%
- viability, T/C [32]: 103%
- viability, T/C [33]: 96.1%
- viability, T/C [34]: 72.2%
- viability, T/C [35]: 25.2%
- viability, T/C [36]: 7.13%

Compound: O=C(c1cc(Cc2n[nH]c(=O)c3ccccc23)ccc1F)N1CCN(C(=O)C2CC2)CC1 + CN(C)c1ccc(Nc2c3ccc(NC(=O)CCN4CCCC4)cc3nc3cc(NC(=O)CCN4CCCC4)ccc23)cc1
- IC50 (second compound 0.0316 µM): 4.87 µM
- IC50 (second compound 0.1 µM): 5.02 µM
- IC50 (second compound 0.316 µM): 4.91 µM
- IC50 (second compound 1 µM): 5.07 µM
- IC50 (second compound 3.16 µM): 3.74 µM
- IC50 (second compound 10 µM): 1.93 µM
- viability, T/C [1]: 106%
- viability, T/C [2]: 104%
- viability, T/C [3]: 110%
- viability, T/C [4]: 105%
- viability, T/C [5]: 74.2%
- viability, T/C [6]: 9.57%
- viability, T/C [7]: 104%
- viability, T/C [8]: 97.9%
- viability, T/C [9]: 107%
- viability, T/C [10]: 109%
- viability, T/C [11]: 76.7%
- viability, T/C [12]: 10.2%
- viability, T/C [13]: 100%
- viability, T/C [14]: 103%
- viability, T/C [15]: 101%
- viability, T/C [16]: 108%
- viability, T/C [17]: 75.1%
- viability, T/C [18]: 9.35%
- viability, T/C [19]: 99.7%
- viability, T/C [20]: 99.3%
- viability, T/C [21]: 104%
- viability, T/C [22]: 109%
- viability, T/C [23]: 79%
- viability, T/C [24]: 8.19%
- viability, T/C [25]: 105%
- viability, T/C [26]: 104%
- viability, T/C [27]: 101%
- viability, T/C [28]: 107%
- viability, T/C [29]: 57.4%
- viability, T/C [30]: 6.49%
- viability, T/C [31]: 102%
- viability, T/C [32]: 103%
- viability, T/C [33]: 104%
- viability, T/C [34]: 95.7%
- viability, T/C [35]: 15.6%
- viability, T/C [36]: 3.36%
